# Data from patent publication US20250171459A1, “2-METHYL-4',5'-DIHYDROSPIRO[PIPERIDINE-4,7'-THIENO[2,3-C]PYRAN] DERIVATIVES AS INHIBITORS OF APOL1 AND METHODS OF USING SAME” (Vertex Pharmaceuticals Incorporated, priority 2022, published 2025).
# Target: T1, APOL1 (Homo sapiens, UniProt O14791)
# T1 sequence (O14791 1-398 S342G/I384M): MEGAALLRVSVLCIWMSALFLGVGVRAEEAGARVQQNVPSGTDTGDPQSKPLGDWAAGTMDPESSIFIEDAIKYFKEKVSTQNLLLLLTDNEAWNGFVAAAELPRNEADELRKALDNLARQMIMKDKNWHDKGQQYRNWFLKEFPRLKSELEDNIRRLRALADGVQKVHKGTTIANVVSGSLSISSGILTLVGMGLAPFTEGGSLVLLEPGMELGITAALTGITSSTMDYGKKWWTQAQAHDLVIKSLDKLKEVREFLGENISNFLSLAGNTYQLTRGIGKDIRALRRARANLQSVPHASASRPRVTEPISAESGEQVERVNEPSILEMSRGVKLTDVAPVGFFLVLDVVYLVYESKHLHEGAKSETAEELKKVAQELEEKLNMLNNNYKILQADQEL
# Experiment: MultiTox-Fluor Multiplex Cytotoxicity Assay in tet-inducible APOL1 T-REx-HEK293 cells (cell rescue, ratio of dead to live cells)
# Format: cell-based
# Details: tet-inducible transgenic APOL1 T-REx-HEK293 cell lines, 50 ng/mL tet, 24 hours; read-out: IP50 (i.e., IC50 for cell proliferation)
# In short: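 T-REx-HEK293 cells with tet-inducible APOL1 were treated with compound (10 μM top, 10-point 3-fold dilution, duplicate) plus 50 ng/mL tetracycline for 24 h at 37° C, in DMEM with 2% tet-free FBS. MultiTox-Fluor protease signals gave a dead/live ratio, normalized to no tet (100% viability) and tet alone (0%).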
row,SMILES,IC50 [nM]
1,CCc1cc2c(s1)CCOC21CCN(Cc2cn(CCCN3CC(O)C3)nn2)CC1 [Compound 1115],500 to 1000
2,COCCc1ncc(CN2CC[C@]3(C[C@@H]2C)OC[C@H](O)c2cc(Cl)sc23)cn1 [Compound 797],100 to 500
3,CCc1cc2c(s1)CCO[C@@]21CCN(Cc2cn(CC3CCO3)nn2)[C@@H](C)C1 (stereo partly drawn) [Compound 33],< 100
4,"C[C@H]1C[C@@]2(CCN1Cc1cnn(C)c1)OCCc1cc(CO)sc12 [Compound 1018, [(2′S, 7R)-2′-methyl-1′-[(1-methylpyrazol-4-yl)methyl]spiro[4,5-dihydrothieno[2,3-c]pyran-7,4′-piperidine]-2-yl]methanol]",100 to 500
5,C[C@H]1C[C@@]2(CCN1Cc1cnn(CC3(O)CCOC3=O)c1)OCCc1c2sc(C(F)(F)F)c1CO (stereo partly drawn) [Compound 951],500 to 1000
6,C[C@H]1C[C@@]2(CCN1Cc1cnn(CC(O)C3CCC3)c1)OCCc1c2sc(C(F)(F)F)c1CO (stereo partly drawn) [Compound 944],< 100
7,"CCc1cc2c(s1)CCO[C@@]21CCN(C[C@H]2C[C@@H](NS(=O)(=O)CCO)C2)[C@@H](C)C1 [Compound 388, N-[3-[[(2′S,4R)-2-ethyl-2′-methyl-spiro[6,7-dihydrothieno[3,2-c]pyran-4,4′-piperidine]-1′-yl]methyl]cyclobutyl]-2-hydroxy-ethanesulfonamide]",< 100
8,CCc1cc2c(s1)CCO[C@@]21CCN(Cc2cn(C3CN(S(=O)(=O)C4CC4)C3)nn2)[C@@H](C)C1 [Compound 5],< 100
9,"C[C@H]1C[C@@]2(CCN1Cc1cnn(C)c1)OCCc1cc(C(C)(C)C)sc12 [Compound 1020, (2S,4R)-2′-(tert-butyl)-2-methyl-1-((1-methyl-1H-pyrazol-4-yl)methyl)-4′,5′-dihydrospiro[piperidine-4,7′-thieno[2,3-c]pyran]]",500 to 1000
10,C[C@H]1C[C@@]2(CCN1Cc1cn(C3CCOCC3)nn1)OCCc1c2sc(C(F)(F)F)c1CO [Compound 1004],100 to 500
11,"CCc1cc2c(s1)CCO[C@@]21CCN(Cc2cn(CCS(=O)(=O)NC)nn2)[C@@H](C)C1 [Compound 12, 2-[4-[[(2′S)-2-ethyl-2′-methyl-spiro[6,7-dihydrothieno[3,2-c]pyran-4,4′-piperidine]-1′-yl]methyl]triazol-1-yl]-N-methyl-ethanesulfonamide]",< 100
12,CCc1cc2c(s1)CCO[C@@]21CCN(C[C@H]2C[C@@H](NC(=O)C3(O)CCC3)C2)[C@@H](C)C1 [Compound 330],< 100
13,C[C@H]1C[C@@]2(CCN1Cc1ccccn1)OC[C@H](O)c1cc(Cl)sc12 [Compound 811],500 to 1000
14,CCc1cc2c(s1)CCO[C@@]21CCN(Cc2cnc(OCC3(N)CCOC3)nc2)[C@@H](C)C1 (stereo partly drawn) [Compound 215],< 100
15,C[C@H]1C[C@@]2(CCN1Cc1cnn(C[C@@H](O)C(=O)NC3CC3)c1)OC[C@@H](O)c1cc(C(F)(F)F)sc12 [Compound 995],< 100
16,CCc1cc2c(s1)CCOC21CCN(Cc2cnc(NC(=O)COCCOC)s2)CC1 [Compound 1132],100 to 500
17,CCc1cc2c(s1)CCO[C@@]21CCN(C[C@H]2C[C@@H](NS(=O)(=O)c3cccc(OC)c3)C2)[C@@H](C)C1 [Compound 396],< 100
18,C[C@H]1C[C@@]2(CCN1C1COCC1O)OCCc1cc(CC(F)F)sc12 (stereo partly drawn) [Compound 609],< 100
19,CCc1cc2c(s1)CCO[C@@]21CCN(C[C@H]2C[C@@H](NC(=O)c3ccnc(C)n3)C2)[C@@H](C)C1 [Compound 324],< 100
20,CCc1cc2c(s1)CCOC21CCN(Cc2cn(CCS(=O)(=O)NC)nn2)CC1 [Compound 1083],500 to 1000
21,Cc1cc2c(s1)CCO[C@@]21CCN(CC(O)C(N)=O)[C@@H](C)C1 (stereo partly drawn) [Compound 502],100 to 500

row,SMILES,IC50 [nM]
1,"[2H]c1c(CC)sc2c1[C@]1(CCN(Cc3cn(CCS(C)(=O)=O)nn3)[C@@H](C)C1)OCC2 [Compound 527, (2′S,4R)-3-deuterio-2-ethyl-2′-methyl-1′-[[1-(2-methylsulfonylethyl)triazol-4-yl]methyl]spiro[6,7-dihydrothieno[3,2-c]pyran-4,4′-piperidine]]",< 100
2,CCc1cc2c(s1)CCO[C@@]21CCN(Cc2cn(Cc3nc(COC)no3)nn2)[C@@H](C)C1 [Compound 184],< 100
3,CCc1cc2c(s1)CCO[C@@]21CCN(Cc2ncon2)[C@@H](C)C1 [Compound 293],500 to 1000
4,CCc1cc2c(s1)CCO[C@@]21CCN(CC(O)c2ccc(F)cc2)[C@@H](C)C1 (stereo partly drawn) [Compound 249],< 100
5,C[C@H]1C[C@@]2(CCN1Cc1cn(C)nn1)OC[C@H](O)c1cc(Cl)sc12 [Compound 813],100 to 500
6,COc1ncc(CN2CC[C@]3(C[C@@H]2C)OCCc2cc(CC(F)F)sc23)c(OC)n1 [Compound 593],< 100
7,CCc1cc2c(s1)CCO[C@@]21CCN(Cc2cn(Cc3nc(C)no3)nn2)[C@@H](C)C1 [Compound 165],< 100
8,"COC1CO[C@@]2(CCN(Cc3cnn(CCS(C)(=O)=O)c3)[C@@H](C)C2)c2sc(Cl)cc21 (single isomer, unassigned) [Compound 843, (2′S, 7R)-2-chloro-4-methoxy-2′-methyl-1′-[[1-(2-methylsulfonylethyl)pyrazol-4-yl]methyl]spiro[4,5-dihydrothieno[2,3-c]pyran-7,4′-piperidine]]",< 100
9,"C[C@H]1C[C@@]2(CCN1Cc1cnn(CCS(C)(=O)=O)c1)OCCc1cc(C3CC3)sc12 [Compound 1034, (2′S, 7R)-2-cyclopropyl-2′-methyl-1′-[[1-(2-methylsulfonylethyl)pyrazol-4-yl]methyl]spiro[4,5-dihydrothieno[2,3-c]pyran-7,4′-piperidine]]",< 100
10,CCc1cc2c(s1)CCOC21CCN(Cc2csc(N3CCOCC3)n2)CC1 [Compound 1146],500 to 1000
11,CCc1cc2c(s1)CCO[C@@]21CCN(Cc2cn(Cc3c(C)cc(C)nc3O)nn2)[C@@H](C)C1 [Compound 66],100 to 500
12,CCc1cc2c(s1)CCO[C@@]21CCN(Cc2cn([C@H]3C[C@H](O)C3)nn2)[C@@H](C)C1 [Compound 151],< 100
13,C[C@H]1C[C@@]2(CCN1Cc1cn(CCCS(C)(=O)=O)nn1)OC[C@](O)(C(F)F)c1cc(Cl)sc12 [Compound 839],< 100
14,CCc1cc2c(s1)CCO[C@@]21CCN(Cc2cn(CCN3CCS(=O)(=O)CC3)nn2)[C@@H](C)C1 [Compound 175],500 to 1000
15,C[C@H]1C[C@@]2(CCN1Cc1cnn(CC(O)c3ccnn3C)c1)OCCc1c2sc(C(F)(F)F)c1CO (stereo partly drawn) [Compound 965],< 100
16,CCc1cc2c(s1)CCOC21CCN(Cc2cnc(-c3ccccn3)s2)CC1 [Compound 1140],500 to 1000
17,CCc1cc2c(s1)CCO[C@@]21CCN(C[C@H]2C[C@@H](NS(=O)(=O)c3ccc(C#N)cc3)C2)[C@@H](C)C1 [Compound 391],< 100
18,CCc1cc2c(s1)CCO[C@@]21CCN(C[C@H]2C[C@@H](NC(=O)C3(C(N)=O)CC3)C2)[C@@H](C)C1 [Compound 350],100 to 500
19,COc1ccc(CN2CC[C@]3(C[C@@H]2C)OCCc2c3sc(Cl)c2CO)cc1OCC(N)=O [Compound 744],< 100
20,C[C@H]1C[C@@]2(CCN1Cc1cn(CCCS(C)(=O)=O)nn1)OCCc1cc(CC(F)F)sc12 [Compound 545],< 100
21,C[C@H]1C[C@@]2(CCN1CC1CCN(S(C)(=O)=O)CC1)OCCc1cc(Cl)sc12 [Compound 670],100 to 500
